The values that follow are results of earlier work, collected in article PMC10905719, “Accelerating Antimicrobial Peptide Discovery for WHO Priority Pathogens through Predictive and Interpretable Machine Learning Models” (ACS Omega, 2024).

The test system of one series is Erythrocyte. The text has this: page 8: 2 VGALAGFLYWHFLRKGTKM NewAMP_S Hm-AMP10 VGK S. aureus ST 88 248.00 NewAMP_S hHK-18 TGKASQFFGLM-NH S. aureus ATCC 151.63 2 25923 NewAMP_S AH-18 LKKWTGKASQFFGLM-NH S. aureus ATCC 222.71 2 25923 NewAMP_S AH-28 LKKWTLKASQFFGLM-NH S. aureus ATCC 229.89 2 25923 NewAMP_S AH-38 LKKWLKKWTGKASQFFGLM- S. aureus ATCC 9.18 NH2 25923 NewAMP_S AH-48 LKKWLKKWTLKASQFFGLM- S. aureus ATCC 4.70 NH2 25923 Sub-set Name Sequence Erythrocyte MHC(µg/mL) (% hemolysis) NewAMP_HE HJH-18 KLLKHKLLVTLA Erythrocyte 382.72a NewAMP_HE HJH-28 KLLKHKLLVTLR Erythrocyte 382.72a NewAMP_HE HJH-38 KLLKRKLLVTLR Erythrocyte 382 ...

The test system of a further series is P. aeruginosa ATCC 10148. Particulars: NewAMP_P, ref SI 3. The source says: page 6: NH2 8 LKKWLKKWTPKASQFFGLM- NewAMP_E AH-5 NH E. coli ATCC 25922 4.67 2 3 […] P. aeruginosa ATCC NewAMP_P RaCa-2 KC 10148 128 3 P. aeruginosa ATCC NewAMP_P RaCa-4 FLTFPGMTFGKLLGK 10148 No inhibition 3 […] P. aeruginosa ATCC NewAMP_P RaCa-6 GKQ 10148 No inhibition 3 […] P. aeruginosa ATCC NewAMP_P RaCa-7 SVGN 10148 No inhibition 3 P. aeruginosa ATCC NewAMP_P RaCa-8 FPAIICKVSKNC 10148 No inhibition 3 P. aeruginosa ATCC NewAMP_P RaCa-9 FYFPVSRKFGGK 10148 No inhibition 3 […] P. aeruginosa ATCC NewAMP_P RaCa-10 LEII 1 ...

The next series relates to S. aureus ATCC 6538P. The conditions noted are these: NewAMP_S, ref SI 3. The source says: page 7: 29213 8 S. aureus ATCC NewAMP_S HJH-6 KKLLKKLLRLLKVLLR 29213 0.75 6 GWGAKRWGKRGWKWKRH NewAMP_S GW18 W-COONH S. aureus ATCC 6538 3.12 2 3 […] S. aureus ATCC NewAMP_S RaCa-2 KC 6538P 2-4 3 S. aureus ATCC NewAMP_S RaCa-4 FLTFPGMTFGKLLGK 6538P No inhibition 3 […] S. aureus ATCC NewAMP_S RaCa-6 GKQ 6538P No inhibition 3 […] S. aureus ATCC NewAMP_S RaCa-7 SVGN 6538P No inhibition 3 S. aureus ATCC NewAMP_S RaCa-8 FPAIICKVSKNC 6538P No inhibition 3 S. aureus ATCC NewAMP_S RaCa-9 FYFPVSRKFGGK 6538P No inhibition 3 […] S ...

A further series concerns E. coli ATCC 25922. Particulars: NewAMP_E, ref SI 3. The source says: page 5: Table S3 NewAMP database1-9 Sub-set Name Sequence Bacterial Strain MIC (µg/mL) NewAMP_E HJH-58 KKLLRLLKVLLR E. coli ATCC 25922 1.5 3 […] NewAMP_E RaCa-2 KC E. coli ATCC 25922 4-16 3 […] NewAMP_E RaCa-6 GKQ E. coli ATCC 25922 No inhibition NewAMP_E RaCa-83 FPAIICKVSKNC E. coli ATCC 25922 No inhibition 3 […] NewAMP_E RaCa-10 LEII E. coli ATCC 25922 No inhibition 5 […] NewAMP_E Hydr_2 KLL-NH E. coli ATCC 25922 512 2 5 […] NewAMP_E Hydr_3 KAG-NH E. coli ATCC 25922 512 2 NewAMP_E Hydr_45 FLPLIGRVFSGIL ... || page 6: NH2 8 LKKWLKKWTPKASQFFGLM- NewAMP_E AH-5 NH E. coli ATCC 25922 4.67 2 3 […] P. aeruginosa ATCC NewAMP_P RaCa-2 KC 10148 128 3 P. aeruginosa ATCC NewAMP_P RaCa-4 FLTFPGMTFGKLLGK 10148 No inhibition 3 […] P. aeruginosa ATCC NewAMP_P RaCa-6 GKQ 10148 No inhibition 3 […] P. aeruginosa ATCC NewAMP_P RaCa-7 SVGN 10148 No inhibition 3 P. aeruginosa ATCC NewAMP_P RaCa-8 FPAIICKVSKNC 10148 No inhibition 3 P. aeruginosa ATCC NewAMP_P RaCa-9 FYFPVSRKFGGK 10148 No inhibition 3 […] P. aeruginosa ATCC NewAMP_P RaCa-10 LEII 1 ...

Consider “KKLLKKLLRLLKVLLR [HJH-6, newly published AMP of the NewAMP test set]”, for which, in the series on Erythrocyte, the “% hemolysis at MHC” value is 90%.

On to “FLTFPGMTFGKLLGK [RaCa-4, newly published AMP of the NewAMP test set]”, for which the MIC entry in the series with P. aeruginosa ATCC 10148 and in the series with S. aureus ATCC 6538P was “No inhibition” in each case.

Consider “SNRDFFKVNIFRLCG [RaCa-11, newly published AMP of the NewAMP test set]”, for which the MIC entry in the series with P. aeruginosa ATCC 10148 and in the series on S. aureus ATCC 6538P was “No inhibition” each time. In the case of “FILYGLIRFGRLLRK [Hm-AMP4, newly published AMP of the NewAMP test set]”, in the series on Erythrocyte, the “% hemolysis at MHC” value was 77%. Take “FYFPVSRKFGGK [RaCa-9, newly published AMP of the NewAMP test set]”: the MIC result with P. aeruginosa ATCC 10148 and in the series with S. aureus ATCC 6538P was “No inhibition” throughout.

For the sequence “FPAIICKVSKNC [RaCa-8, newly published AMP of the NewAMP test set]”, the MIC result in the series on E. coli ATCC 25922, with P. aeruginosa ATCC 10148 and in the series with S. aureus ATCC 6538P was “No inhibition” in each case.
